Results reported in patent publication EP1101492A1, “NOVEL REMEDIES FOR ALLERGIC DISEASES” (FUJI YAKUHIN KOGYO KABUSHIKI KAISHA, priority 1998, dated 2000).

Key:
[1] = system: mouse experimental atopic dermatitis models; assay: Auricle edema in experimental atopic dermatitis model (anti-DNP IgE sensitization, DNFB elicitation); type: in vivo, Balb/c mice; details: for % Inhibition vLPR: auricle edema Day 7 post-elicitation
allergic peritonitis = assay: Allergic peritonitis induced with ovalbumin (peritoneal exudate cells); type: in vivo, Balb/c mice; details: ovalbumin challenge
Method: Twenty four hours after induction, mice were sacrificed under ether […] and each penitoneal cavity was lavaged twice or thrice with a washout medium (total volume: 5 mL, physiological saline containing 10 units/mL of heparin). Peritoneal exudate cells (PEC) were harvested in a siliconized glass tube. The retrieved washout medium was measured for its yield (mL) and the number of exudate cells therein by using Turk solution and counting on a haemocytometer and a total number of PEC was calculated. An aliquot thereof (an extent of approximately 20,000 cells of PEC) was taken. Specimens for staining were prepared using Cytospin 3 (CHANDON), and PEC was stained with Dif-Quick solution (International Reagents Corporation). After staining, PEC was subjected to fractional counts under a microscope with classification into eosinophils, neutrophils, lymphocytes/macrophages and basophils based on their form and stain nature (more than 500 PEC per specimen were randomly counted). […] After counting, intraperitoneal exudation inhibition rates were calculated by the following formula and expressed as the therapeutic efficacies: Inhibition Rate (%) =[1 -((PEC in Sensitized/Drug-Treated Mouse) - (PEC in Unsensitized/Saline-Treated Mouse))/((PEC in Sensitized/Saline-Treated Mouse) - (PEC in Unsensitized/Saline-Treated Mouse))]× 100 [formula]
A physiological saline solution containing ovalbumin (0.25 mg/mL) and an aluminum hydroxide gel (4 mg/mL) was administered subcutaneously to male Balb/c mice (7 weeks old, 20 to 23 g, purchased from JAPAN SLC, Inc.) twice at one week interval at a single dose of 0.4 mL for sensitization. On Day 14 after the initial sensitization, an antigen solution for induction (2.5 µg/mL) was administered intraperitoneally to each animal at a dose of 0.4 mL to raise allergic peritonitis. Compound No. 130 (30 mg/kg) or a negative control solvent, physiological saline (10 mL/kg), was administered intraperitoneally to each animal 5 minutes prior to induction, 3 and 6 hours post-induction.
Similarly to Example 24, the peritoneal cavities were lavaged to retrieve PEC. The drained liquids were measured for their yield and total PEC number therein. In the same manner as in Example 24, PEC was stained and subjected to fractional counting under a microscope based on their form. […] Similarly to Example 24, basophils and neutrophils were excluded from subjects to be examined. In the same manner as in Example 24, intraperitoneal exudation inhibition rates were calculated and expressed as the therapeutic efficacies.
In the same manner as in Example 25, male Balb/c mice were sensitized with ovalbumin and an aluminum hydroxide gel, and, on Day 14 after the initial sensitization, treated with an antigen solution to raise allergic peritonitis. Compound No. […]
Similarly to Example 24, the peritoneal cavities were lavaged to retrieve PEC 24 hours after induction. The drained liquids were measured for their yield and total PEC number therein.

Body weight gain in mice = details: test compounds 60 mg/kg s.c., prednisolone 10 mg/kg i.p., once a day for 6 days (Days 0-5), average ± standard deviation
Method: Accordingly, for assessing the side-effect each of the following test compounds an action on body weight gains was examined.
Next the mice were measured for their body weight. Each body weight gain was calculated on Days 5, 7 and 10 post-administration based on the body weight just prior to administration.

[2] = system: guinea pig experimental bronchial asthma models; assay: Experimental bronchial asthma model (ovalbumin inhalation): airway resistance and asthmatic death;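 further: female Std:Hartley guinea pigs sensitized by inhaling nebulized ovalbumin once daily for 8 consecutive days, 8 to 11 animals per group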
Method: Guinea pigs (female, Std:Hartley, 3 weeks old, 200 to 250 g) were individually housed in a plastic chamber (width, 200 mm; depth, 300 mm; height, 167 mm). Aqueous ovalbumin (10 mg/mL) was administered to the guinea pigs once a day for sensitization by 10 min. inhalation with a nebulizer (5B, Nippon Shoji K.K.: flow rate, 6 L/min.) at a dose of 10 mg/mL during 8 cosecutive days. On Day 7 after the final sensitization, the guinea pigs were housed in a plastic chamber and inhaled using a nebulizer with a solution of ovalbumin (10 mg/mL) in physiological saline for 1 min. for elicitation (Matsumoto, T., et al., The Journal of Pharmacology and Experimental Therapeutics, 269: 1236-1244, 1994). The number of animals employed in the experiment was set to the extent there are at least 6 as individuals escaping asthmatic death. A solution of a test compound (Compound No. 130, 15 mg/kg) in water for injection was administered subcutaneously twice, i.e., 24 hours and 2 hours prior to elicitation. Similarly, the solvent alone was also administered to a negative control group. A suspension of prednisolone (10 mg/kg) in 0.5% aqueous methyl cellulose was administered orally twice, i.e., 24 hours and 2 hours prior to elicitation. Similarly, the solvent alone was also administered to another control group.
The evaluation for efficacies was conducted in terms of airway resistance. For this purpose, an apparatus dedicated to the measurement of airway resistance (K.K. Medical Agent) was employed. Measurement includes setting a guinea pig in a test chamber under a not-anesthetized condition, applying sinusoidal pressure waves of 30 Hz components to a part below the neck of the animal from the back side of the chamber, measuring respiratory waves of 30 Hz components leaking through the mouth (volume of 30 Hz air flow passing through the respiratory tract) in front of the neck, and calculating airway resistance mechanically. Measurement was carried out immediately prior to the first drug treatment (24 hours before elicitation), just prior to elicitation, 10 minutes, 1, 2, 4, 6, and 8 hours post-elicitation.
It was visually observed by a person carrying out said test in terms, of the appearance of cyanosis or suffocative death (asthmatic death) due to respiratory obstruction.
Guinea pigs were sensitized with ovalbumin and asthma was induced on Day 7 after final sensitization in the same manner as in Example 20. The number of animals employed in the experiment was set to the extent there are at least 6 as individuals escaping asthmatic death (8 to 11 animals/group). In the same manner as in Example 20, the animals were measured for airway resistance mechanically and each percent change (%) in airway resistance was calculated (each value just prior to elicitation was set as 100%). Each percent amelioration in airway resistance was calculated from the percent changes in airway resistance according to the following formula: Amelioration in Airway Resistance (%) = 1 -[((Percent Change in Airway Resistance after Drug-Administration) - (Value just prior to Challenge (100)))/((Percent Change in Airway Resistance after Solvent-Administration) - (Value just prior to Challenge (100)))]× 100 [formula]

[3] = 30 mg/kg i.p. 5 minutes prior to induction, 3 and 6 hours post-induction
[4] = 30 mg/kg s.c. 6 hours and 5 minutes prior to induction, 24 hours after induction
[5] = asthmatic death due to cyanosis within several minutes after elicitation, Compound No. 130 15 mg/kg s.c., prednisolone 10 mg/kg orally, 24 and 2 hours prior to elicitation

In the case of `CNC(=O)[C@H](Cc1ccc(NC(=N)N)cc1)NC(=O)[C@H](CC(C)C)C(CCCc1ccccc1)C(=O)NO` (single isomer, unassigned) [Compound No. 130, N-[4-(N-Hydroxyamino)-2(R)-isobutyl-3(R or S)-(3-phenyltrimethylene)succinyl)-L-4'-guanidophenylalanine-N-methylamide 1 acetate], the “inhibitory efficacy on IgE-mediated auricle edema (FIG. 7)” value ([1]; 50 µg/ear/dose in ethanol painted twice a day, 1 hour pre-elicitation, 0.25, 3, 4, 5 and 6 days post-elicitation) is reported as “endowed with an inhibitory activity on edemas in any of IPR, LPR, and vLPR”, the “inhibitory efficacy on IgE-mediated auricle edema (FIG. 6)” value ([1]; 60 mg/kg s.c. 24 and 2 hours prior to elicitation only, compared with prednisolone 10 mg/kg i.p., IPR 1 hour, LPR 1 day, vLPR 7 days) is reported as “edema-inhibitory activity equivalent to that of prednisolone in IPR and slightly and markedly higher than that of prednisolone in LPR and vLPR, respectively” and the “% Inhibition IPR” value ([1]; auricle edema 1 hour post-elicitation, test compounds 60 mg/kg s.c., prednisolone 10 mg/kg i.p., once a day, 24 & 2 hours prior to DNFB-elicitation, vs untreated group) is reported as 64.4%. The “% Inhibition LPR” value ([1]; auricle edema Day 1 post-elicitation, test compounds 60 mg/kg s.c., prednisolone 10 mg/kg i.p., once a day, 24 & 2 hours prior to DNFB-elicitation, vs untreated group) was 51.3%, the “% Inhibition vLPR” value ([1]; test compounds 60 mg/kg s.c., prednisolone 10 mg/kg i.p., daily from 3 to 6 days after DNFB-elicitation) was 52.7% and the “% Inhibition vLPR” value ([1]; test compounds 60 mg/kg s.c., prednisolone 10 mg/kg i.p., daily from 1 day prior to through 5 days after DNFB-elicitation) was 79.0%. The “inhibition of infiltration of eosinophils into the peritoneal cavity” value (allergic peritonitis; [3]) was 56.3%, the “inhibition of infiltration of lymphocytes/macrophages into the peritoneal cavity” value (allergic peritonitis; [3]) was 74.9% and the “reduction of total PEC numbers” value (allergic peritonitis; [3]) was 70.7%. The “inhibition of infiltration of eosinophils into the peritoneal cavity” value (allergic peritonitis; [4]) was 38.6%, the “inhibition of infiltration of lymphocytes/macrophages into the peritoneal cavity” value (allergic peritonitis; [4]) was 91.2% and the “reduction of total PEC numbers” value (allergic peritonitis; [4]) was 68.5%. The “Body Weight Gain, Observation Day 5” value (Body weight gain in mice; non-administered 0.50± 0.23) was 0.57± 0.61, the “Body Weight Gain, Observation Day 7” value (Body weight gain in mice; non-administered 0.80± 0.48) was 0.77± 0.55 and the “Body Weight Gain, Observation Day 10” value (Body weight gain in mice; non-administered 1.07± 0.58) was 1.20± 0.26. For the same compound, the “airway resistance (FIG. 12)” value ([2]; 15 mg/kg s.c. 24 hours and 2 hours prior to elicitation, IAR 1 hour, LAR 6 hours post-elicitation) was “significant reduction of the increased airway resistance”, the “% Mortality” value [2, 5] was 0.0% and the “(Dead Animals)/(Tested Animals)” value [2, 5] was 0/10.
